Literature values as cited in PubChem BioAssay AID1259409 (Chemical Carcinogenesis Research Information System (CCRIS), 2018).

System: rodent chemically induced tumor inhibition, incidence and multiplicity
Assay: CCRIS tumor inhibitor studies

CC(C)Cn1c(=O)n(C)c(=O)c2[nH]cnc21
tumour outcome (control, treated, inhibition, significance) (Carcinogen: 7,12-DIMETHYLBENZ[A]ANTHRACENE, 57-97-6, Dose [Inhibitor]: 5 UMOL 2/WK FOR 48 WK APPLIED AT LEAST 5 MIN BEFORE AND TO SAME AREA OF SKIN AS EACH PROMOTER DOSE, STARTING 2 WK AFTER, Route [Inhibitor]: DERMAL, Species: MOUSE, Strain/Sex: CD-1/FEMALE, Target Tissue: Type of Lesion: SKIN: CARCINOMA, Dose [Carcinogen]: 0.1 UMOL ONCE 2 WK PRIOR TO FIRST DOSE OF INHIBITOR, Promoter: 12-O-TETRADECANOYLPHORBOL-13-ACETATE;16561-29-8): 35%, 19%, 46%, not calculated
tumour outcome (control, treated, inhibition, significance) (Carcinogen: 7,12-DIMETHYLBENZ[A]ANTHRACENE, 57-97-6, Dose [Inhibitor]: 5 UMOL 2/WK FOR 48 WK APPLIED AT LEAST 5 MIN BEFORE AND TO SAME AREA OF SKIN AS EACH PROMOTER DOSE, STARTING 2 WK AFTER, Route [Inhibitor]: DERMAL, Species: MOUSE, Strain/Sex: CD-1/FEMALE, Target Tissue: Type of Lesion: SKIN: PAPILLOMA, Dose [Carcinogen]: 0.1 UMOL ONCE 2 WK PRIOR TO FIRST DOSE OF INHIBITOR, Promoter: 12-O-TETRADECANOYLPHORBOL-13-ACETATE;16561-29-8): 100%, 82%, 18%, not calculated
tumour outcome (control, treated, inhibition, significance) (Carcinogen: 7,12-DIMETHYLBENZ[A]ANTHRACENE, 57-97-6, Dose [Inhibitor]: 5 UMOL APPLIED 2/WK THROUGHOUT THE STUDY AT LEAST 5 MIN BEFORE AND TO SAME AREA OF SKIN AS EACH DOSE OF PROMOTER STARTIN, Route [Inhibitor]: DERMAL, Species: MOUSE, Strain/Sex: CD-1/FEMALE, Target Tissue: Type of Lesion: SKIN: CARCINOMA, Dose [Carcinogen]: 0.1 UMOL APPLIED ONCE, Promoter: 12-O-TETRADECANOYLPHORBOL-13-ACETATE, 16561-29-8): 35%, 19%, 46%, not calculated
tumour outcome (control, treated, inhibition, significance) (Carcinogen: 7,12-DIMETHYLBENZ[A]ANTHRACENE, 57-97-6, Dose [Inhibitor]: 5 UMOL APPLIED 2/WK THROUGHOUT THE STUDY AT LEAST 5 MIN BEFORE AND TO SAME AREA OF SKIN AS EACH DOSE OF PROMOTER STARTIN, Route [Inhibitor]: DERMAL, Species: MOUSE, Strain/Sex: CD-1/FEMALE, Target Tissue: Type of Lesion: SKIN: PAPILLOMA, Dose [Carcinogen]: 0.1 UMOL APPLIED ONCE, Promoter: 12-O-TETRADECANOYLPHORBOL-13-ACETATE, 16561-29-8): 100%, 82%, 18%, not calculated
tumour outcome (control, treated, inhibition, significance) (Carcinogen: 7,12-DIMETHYLBENZ[A]ANTHRACENE, 57-97-6, Dose [Inhibitor]: 10 UMOL 1/WK FOR 30 WK APPLIED AT LEAST 5 MIN PRIOR TO EACH CARCINOGEN TREATMENT (STUDY DURATION: 30 WK), Route [Inhibitor]: DERMAL, Species: MOUSE, Strain/Sex: CD-1/FEMALE, Target Tissue: Type of Lesion: SKIN: CARCINOMA, Dose [Carcinogen]: 0.2 UMOL 1/WK FOR 30 WK, Promoter: NONE USED): 59%, 42%, 29%, not significant
tumour outcome (control, treated, inhibition, significance) (Carcinogen: 7,12-DIMETHYLBENZ[A]ANTHRACENE, 57-97-6, Dose [Inhibitor]: 10 UMOL 1/WK FOR 30 WK APPLIED AT LEAST 5 MIN PRIOR TO EACH CARCINOGEN TREATMENT (STUDY DURATION: 30 WK), Route [Inhibitor]: DERMAL, Species: MOUSE, Strain/Sex: CD-1/FEMALE, Target Tissue: Type of Lesion: SKIN: PAPILLOMA, Dose [Carcinogen]: 0.2 UMOL ONCE 1/WK FOR 30 WK, Promoter: NONE USED): 100%, 100%, 0%, not significant
tumour outcome (control, treated, inhibition, significance) (Carcinogen: 7,12-DIMETHYLBENZ[A]ANTHRACENE, 57-97-6, Dose [Inhibitor]: 10 UMOL APPLIED 1/WK THROUGHOUT THE STUDY AT LEAST 5 MIN BEFORE AND TO SAME AREA OF SKIN AS EACH APPLICATION OF CARCINOG, Route [Inhibitor]: DERMAL, Species: MOUSE, Strain/Sex: CD-1/FEMALE, Target Tissue: Type of Lesion: SKIN: CARCINOMA, Dose [Carcinogen]: 0.2 UMOL 1/WK FOR 30 WK, Promoter: NONE USED): 59%, 42%, 29%, not significant
tumour outcome (control, treated, inhibition, significance) (Carcinogen: 7,12-DIMETHYLBENZ[A]ANTHRACENE, 57-97-6, Dose [Inhibitor]: 10 UMOL APPLIED 1/WK THROUGHOUT THE STUDY AT LEAST 5 MIN BEFORE AND TO SAME AREA OF SKIN AS EACH APPLICATION OF CARCINOG, Route [Inhibitor]: DERMAL, Species: MOUSE, Strain/Sex: CD-1/FEMALE, Target Tissue: Type of Lesion: SKIN: PAPILLOMA, Dose [Carcinogen]: 0.2 UMOL 1/WK FOR 30 WK, Promoter: NONE USED): 100%, 100%, 0%, not significant
outcome (Carcinogen: 7,12-DIMETHYLBENZ[A]ANTHRACENE, 57-97-6, Dose [Inhibitor]: 10 UMOL APPLIED ONCE AT LEAST 5 MIN PRIOR TO CARCINOGEN DOSE (STUDY DURATION: 34 WK), Route [Inhibitor]: DERMAL, Species: MOUSE, Strain/Sex: CD-1/FEMALE, Target Tissue: Type of Lesion: SKIN: CARCINOMA, Dose [Carcinogen]: 3.6 UMOL ONCE, Promoter: NONE USED): 0%, 4%, not calculated

CC1=CC(=O)c2c(O)cccc2C1=O
tumour outcome (control, treated, inhibition, significance) (Carcinogen: AZOXYMETHANE [25843-45-2], Dose [Inhibitor]: 200 PPM IN DIET FOR 4 WK BEGINNING 1 WK PRIOR TO FIRST CARCINOGEN DOSE (STUDY DURATION: 35 WK), Route [Inhibitor]: ORAL, Species: RAT, Strain/Sex: F344/MALE, Target Tissue: Type of Lesion: COLON: ADENOMA, Dose [Carcinogen]: 15 MG/KG BW 1X/WK FOR 3 WK (STUDY DURATION: 35 WK), Promoter: NONE): 6/28 (21%), 3/29 (10%), 52%, not significant
tumour outcome (control, treated, inhibition, significance) (Carcinogen: AZOXYMETHANE [25843-45-2], Dose [Inhibitor]: 200 PPM IN DIET FOR 4 WK BEGINNING 1 WK PRIOR TO FIRST CARCINOGEN DOSE (STUDY DURATION: 35 WK), Route [Inhibitor]: ORAL, Species: RAT, Strain/Sex: F344/MALE, Target Tissue: Type of Lesion: COLON: CARCINOMA, Dose [Carcinogen]: 15 MG/KG BW 1X/WK FOR 3 WK (STUDY DURATION: 35 WK), Promoter: NONE): 8/28 (29%), 8/29 (28%), 3%, not significant
tumour outcome (control, treated, inhibition, significance) (Carcinogen: AZOXYMETHANE [25843-45-2], Dose [Inhibitor]: 200 PPM IN DIET FOR 4 WK BEGINNING 1 WK PRIOR TO FIRST CARCINOGEN DOSE (STUDY DURATION: 35 WK), Route [Inhibitor]: ORAL, Species: RAT, Strain/Sex: F344/MALE, Target Tissue: Type of Lesion: SMALL INTESTINE: CARCINOMA, Dose [Carcinogen]: 15 MG/KG BW 1X/WK FOR 3 WK (STUDY DURATION: 35 WK), Promoter: NONE): 7/28 (25%), 3/29 (10%), 60%, not significant
